Data on one compound can be found in patent publication EP0199190A2, “Separating element for separating solid particles, suspended in a gaseous current, by centrifugal force in a cylindrical whirl chamber” (Anton Piller GmbH & Co. KG, priority 1985, dated 1986).

The term LD50 denotes the dose expected to kill half of the subjects tested.

The structures appear in SMILES notation.

The subject of data set [1] is ADP induced aggregation. In words: ADP induced aggregation test ex vivo in the rat, orally. The following applies: single dose of 100 mg/kg. Here is the method: (§1) As already stated, the compounds according to the invention show a marked antiplatelet aggregation activity. Moreover, their toxicity is very low. For example, the acute toxicity of the salt above referred by LM-PT bisulfate, was evaluated in the mouse orally and intravenously. The LD50 were about 400 mg/kg and about 100 mg/kg, respectively. The DPPV (disaggregating power percentage value) was evaluated for LM-PT bisulfate, by the ADP induced aggregation test ex vivo in the rat, orally. For a single dose of 100 mg/kg, the DPPV was 92-96%.

Data set [2] is described as follows: acute toxicity in the mouse, orally and intravenously. The note with it: in vivo. Here is the method:
as §1

As for `Cn1cnc2c1c(=O)n(CCCCC(=O)CN1CCc3sccc3C1)c(=O)n2C` [LM-PT bisulfate, N-[2-Reto-6-(3,7-dimethylxanthine-1-yl)hexyl]-4,5,6,7-tetrahydro-thieno[3,2-c]pyridine], the “DPPV (disaggregating power percentage value)” value in data set [1] is 92-96%. Moreover, the LD50 is about 100 mg/kg in data set [2] (iv, intravenously) and about 400 mg/kg in data set [2] (po, orally).
